Test results from patent EP3995502A1, “4-HYDROXYPHENYL PHOSPHONIUM SALTS WITH ANTI-PARASITIC PROPERTIES” (priority 2019, dated 2021).
Read-outs that look alike come from different tables or passages of the source.

Columns and labels:
[1] = tested on: L. infantum intracellular amastigotes; experiment: Leishmanicidal activity on intracellular amastigotes of clinical isolates of L. infantum; assay type: cell-based
Text: (§1) The data represent the mean ± standard deviation of 3 independent experiments. ^b SI = selectivity index (EC50 THP-1 / EC50 parasite (amastigote form)). ^c not assayed. ^d Sensitivity data obtained in L. infantum LEM3049. ^eAmphotericin B. ^fMiltefosine.
(§2) ^aClinical isolates of L. infantum used: LEM 3049 as a reference line; LEM 3323, resistant to Sb^III; LEM 5159, resistant to miltefosine (MIL) and LEM 2126, resistant to MIL and paromomycin. Amphotericin B (AmB) was used as a reference drug. The data represent the mean ± standard deviation of 3 independent experiments.

[2] = tested on: L. donovani intracellular amastigotes; experiment: In vitro leishmanicidal activity, MTT colorimetric method, intracellular amastigotes; details: read-out: EC50 (µM) L. donovani intracellular amastigotes
[3] = tested on: L. infantum promastigotes; experiment: Leishmanicidal activity on promastigotes of clinical isolates of L. infantum; assay type: cell-based
Text: as §1, §2

[4] = tested on: L. donovani promastigotes; experiment: In vitro leishmanicidal activity, MTT colorimetric method, promastigotes; details: read-out: EC50 (µM) L. donovani promastigotes
THP-1 cells [5] = tested on: THP-1 cells
[6] = tested on: T. brucei (strain s427 of T. b. brucei); experiment: In vitro trypanocidal activity, sensitive strain s427; assay type: cell-based; details: Trypanosoma brucei, read-out: EC50 (µM) T. brucei
T. brucei B48 = experiment: microbe, parasite or virus in culture; assay type: cell-based, T. b. brucei; set-up: RF: unit not given here; details: for EC50: Trypanosoma brucei, read-out: EC50 (µM) T. brucei B48
THP-1 cells [7] = experiment: cells; details: Homo sapiens, THP-1, read-out: EC50 (µM) THP-1 cells
in vitro [8] = details: human, liver microsomes
[9] = human, liver microsomes
in vitro [10] = details: human, liver S9 fraction
[11] = strain HU3, mean ± standard deviation of 3 independent experiments
[12] = selectivity index (EC50 THP-1 / EC50 parasite (amastigote form)), L. donovani
[13] = strain s427 of T. b. brucei, mean ± standard deviation of 3 independent experiments

C[C@@H]1[C@H](O)[C@@H](C)/C=C/C=C/C=C/C=C/C=C/C=C/C=C/[C@H](O[C@@H]2O[C@H](C)[C@@H](O)[C@H](N)[C@@H]2O)C[C@@H]2O[C@](O)(C[C@@H](O)C[C@@H](O)[C@H](O)CC[C@@H](O)C[C@@H](O)CC(=O)O[C@H]1C)C[C@H](O)[C@H]2C(=O)O [AmB, Amphotericin B]
EC50 ([1]; L. infantum LEM3049, reference line, read-out: EC50 (µM) Intracellular amastigotes): 0.17 ± 0.02 µM
EC50 ([1]; L. infantum LEM3323, resistant to SbIII, read-out: EC50 (µM) Intracellular amastigotes): 0.18 ± 0.02 µM
EC50 ([1]; L. infantum LEM5159, resistant to miltefosine, read-out: EC50 (µM) Intracellular amastigotes): 0.16 ± 0.03 µM
EC50 ([1]; L. infantum LLM2126, resistant to MIL and paromomycin, read-out: EC50 (µM) Intracellular amastigotes): 0.16 ± 0.01 µM
EC50 [2, 11]: 0.24 µM
EC50 ([3]; L. infantum LEM3049, reference line, read-out: EC50 (µM) Promastigotes): 0.06 ± 0.02 µM
EC50 ([3]; L. infantum LEM3323, resistant to SbIII, read-out: EC50 (µM) Promastigotes): 0.07 ± 0.03 µM
EC50 ([3]; L. infantum LEM5159, resistant to miltefosine, read-out: EC50 (µM) Promastigotes): 0.05 ± 0.01 µM
EC50 ([3]; L. infantum LLM2126, resistant to MIL and paromomycin, read-out: EC50 (µM) Promastigotes): 0.1 ± 0.02 µM
EC50 [4, 11]: 0.13 ± 0.02 µM
EC50 (THP-1 cells [5]; read-out: EC50 (µM) THP-1 cells, human THP-1 cells, cytotoxicity): 27.9 µM
SI (THP-1 cells [5]; [12]): 116.0

N=C(N)c1ccc(/N=N/Nc2ccc(C(=N)N)cc2)cc1 [Dimin, Diminazene]
EC50 [6]: 0.101 µM
EC50 (T. brucei B48): 1.33 ± 0.14 µM

CCCCCCCCCCCCCCCCOP(=O)([O-])OCC[N+](C)(C)C [MIL, Miltefosine]
EC50 ([2]; Leishmania donovani): 0.91 ± 0.05 µM
EC50 (THP-1 cells [7]): 26.2 ± 2.58 µM
EC50 ([4]; Leishmania donovani): 6.51 ± 0.35 µM
SI (THP-1 cells [5]; [12]): 28.8

N=C(N)c1ccc(OCCCCCOc2ccc(C(=N)N)cc2)cc1 [Pent, Pentamidine]
EC50 [6, 13]: 0.0033 ± 0.0006 µM
EC50 (T. brucei B48): 0.55 ± 0.03 µM

Cc1cc(O)ccc1C(=O)CCCCCCCCCCCCCCC[P+](c1ccccc1)(c1ccccc1)c1ccccc1.[Br-] [compound 2, (16-(4-hydroxy-2-methylphenyl)-16-oxohexadecyl)triphenylphosphonium bromide]
EC50 [6, 13]: 0.043 µM
EC50 ([2]; Leishmania donovani): 0.1 ± 0.01 µM
RF (T. brucei B48): 1.01
EC50 (T. brucei B48): 0.044 µM
EC50 (THP-1 cells [7]): 2.45 ± 0.41 µM
EC50 ([4]; Leishmania donovani): 0.09 ± 0.01 µM
SI (THP-1 cells [5]): 24.5

Cc1cc(O)ccc1C(=O)CCCCCCCCCCCCCCC[P+](c1ccccc1)(c1ccccc1)c1ccccn1.[Br-] [compound 3, (16-(4-hydroxy-2-methylphenyl)-16-oxohexadecyl)diphenyl(pyridin-2-yl)phosphonium bromide]
EC50 [6, 13]: 0.107 µM
EC50 ([2]; Leishmania donovani): 0.1 ± 0.02 µM
RF (T. brucei B48): 0.90
EC50 (T. brucei B48): 0.096 µM
EC50 (THP-1 cells [7]): 2.11 ± 0.12 µM
EC50 ([4]; Leishmania donovani): 0.28 ± 0.05 µM
SI (THP-1 cells [5]): 21.1

O=C(CCCCCCCCCCCCCCC[P+](c1cccc2ccccc12)(c1cccc2ccccc12)c1cccc2ccccc12)c1ccc(O)cc1O.[Br-] [compound 4, (16-(2,4-dihydroxyphenyl)-16-oxohexadecyl)tri(naphthalen-1-yl)phosphonium bromide]
EC50 ([1]; Leishmania infantum, footnote d: sensitivity data obtained in L. infantum LEM3049, read-out: EC50 (µM) L. donovani intracellular amastigotes): 1.25 ± 0.22 µM
EC50 (THP-1 cells [7]): 12.8 ± 2.3 µM
EC50 ([3]; Leishmania infantum, footnote d: sensitivity data obtained in L. infantum LEM3049, read-out: EC50 (µM) L. donovani promastigotes): 3.54 ± 0.36 µM
SI (THP-1 cells [5]; selectivity index (EC50 THP-1 / EC50 parasite (amastigote form)), parasite data from L. infantum LEM3049): 10.3

O=C(O)Cc1ccccc1Nc1c(Cl)cccc1Cl [diclofenac]
half-life (in vitro [8]): < 30 min
intrinsic clearance [9]: high
half-life (in vitro [10]): < 30 min
